In patent publication US20040136931A1, “Photoprotective cosmetic compositions comprising 3-(2-azacycloalkylidene)-1,3-dihydroindol-2-one compounds” (SOCIETE L'OREAL S.A., priority 2002, published 2004):

What was measured:
[1] = Photostability: irradiation of an oily film in a solar simulator; format: physicochemical; conditions: one hour of irradiation in a solar simulator (UVA=18.6 mW/cm^2, UVB=0.6 mW/cm^2); oily film containing 0.5% of the compound
[2] = RPE (Resonance Paramagnetic Electronic) study of pro-oxidizing activity under irradiation; conditions: formulated medium, irradiation under the same conditions as the photostability test (solar simulator)
[3] = Sun screening properties (UV absorption); format: physicochemical; conditions: 92.8% acetonitrile+7.2% DMSO
Source text: This compound has the following sun screening properties:
λmax=350 nm (92.8% acetonitrile+7.2% DMSO)

Row | SMILES | residual level of the compound after irradiation [1] [%] | pro-oxidizing activity [2] | λmax [3] [nm] | E1% ([3]; at λmax) | εmax ([3]; at λmax)
1 | CCN1C(=O)/C(=C2/CCCN2C)c2ccccc21 [Compound 1, 1-Ethyl-3-(1-methylpyrrolidin-2-ylidene)-1,3-dihydroindol-2-one] | 92 | does not manifest any pro-oxidizing activity | 350 | 722 | 17501 1.mol^−1.cm^−1
2 | O=C1Nc2ccccc2/C1=C1\CCCN1 [Compound 3, 3-Pyrrolidin-2-ylidene-1,3-dihydroindol-2-one] |  |  | 328 |  | 8100 1.mol^−1.cm^−1
3 | CCN1C(=O)/C(=C2/CCCN2)c2ccccc21 [Compound 2, 1-Ethyl-3-pyrrolidin-2-ylidine-1,3-dihydroindol-2-one] |  |  | 326 |  | 22600 1.mol^−1.cm^−1
